Columns and labels:
Format in all cases: in vivo
Monocots [1] = assay: Herbicidal activity, preemergence, monocot weeds (Table II); details: pre-emergence, 336 h, about 2 weeks, read-out: % control (percent of plants killed); for pest or weed control at 2241.7 g/ha: 2 lb./A.; for pest or weed control at 4483.4 g/ha: 4 lb./A.
Procedure: (§1) Using the procedure described below, diphenyl ethers were evaluated for control of the following weeds: […]
(§2) barnyardgrass (Echinochloa crusgalli) crabgrass (Digitaria spp.) nutsedge (Cyperus esculentus)
(§3) At 2 and 4 pounds per acre:
(§4) **Bermudagrass (Cynodon dactylon)
(§5) *downy brome (Bromus tectorum) foxtail (Setaria faberii)
(§6) Johnsongrass (Sorghum halepense) […]
(§7) quackgrass (Agropyron repens)
(§8) *ryegrass (Lolium perenne)
(§9) *yellow millet (Panicum miliaceum)
(§10) The following test procedure is employed. Seeds of selected crops and weeds are planted in soil in flats. For preemergence tests, the flats are treated with the test compound immediately after the planting. For postemergence tests, the seeds are allowed to germinate, and after 2 weeks the flats are treated with the test compound. The compound to be evaluated is dissolved in acetone, diluted with water, and sprayed over the flats using a carrier volume equivalent to 50 gallons per acre at the rate of application (pounds per acre, lb/A.) specified in the tables. About 2 weeks after the application of the test compound, the state of growth of the plants is observed and the phytotoxic effect of the compound is evaluated. Table II gives the average percent control achieved by the test compounds in terms of the percent of the plants which are killed by the compounds.

Dicots [2] = assay: Herbicidal activity, preemergence, dicot weeds (Table II); details: pre-emergence, 336 h, about 2 weeks, read-out: % control (percent of plants killed); for pest or weed control at 2241.7 g/ha: 2 lb./A.; for pest or weed control at 4483.4 g/ha: 4 lb./A.
Procedure: as §1
(§11) bindweed (Convolvulus arvensis) curly dock (Remex crispus) velvetleaf (Abutilon theophrasti) wild mustard (Brassica haber)
(§12) At 2 and 4 pounds per acre: […]
(§13) cocklebur (Xanthium pensylvanicum)
(§14) **coffeeweed (Sesbania macrocarpa)
(§15) *curly dock (Rumex crispus)
(§16) *lambsquarters (Chenopodium album) morningglory (Ipomoea purpurea)
(§17) *pigweed (Amaranthus retroflexus)
(§18) **ragweed (Ambrosia artemisiifolia)
(§19) *smartweed (Polygonum pensylvanicum)
(§20) **tomato (Lycopersicon esculentum)
(§21) *wild carrot (Daucus carota)
(§22) *wild mustard (Brassica haber)
as §10

Monocots [3] = assay: Herbicidal activity, postemergence, monocot weeds (Table II); details: post-emergence, 336 h, about 2 weeks, read-out: % control (percent of plants killed); for pest or weed control at 2241.7 g/ha: 2 lb./A.; for pest or weed control at 4483.4 g/ha: 4 lb./A.
Procedure: as §1, §2, §3, §4, §5, §6, §7, §8, §9, §10

Dicots [4] = assay: Herbicidal activity, postemergence, dicot weeds (Table II); details: post-emergence, 336 h, about 2 weeks, read-out: % control (percent of plants killed); for pest or weed control at 2241.7 g/ha: 2 lb./A.; for pest or weed control at 4483.4 g/ha: 4 lb./A.
Procedure: as §1, §11, §12, §13, §14, §15, §16, §17, §18, §19, §20, §21, §22, §10

| SMILES | pest or weed control at 2241.7 g/ha (Monocots [1]) [%] | pest or weed control at 4483.4 g/ha (Monocots [1]) [%] | pest or weed control at 2241.7 g/ha (Dicots [2]) [%] | pest or weed control at 4483.4 g/ha (Dicots [2]) [%] | pest or weed control at 2241.7 g/ha (Monocots [3]) [%] | pest or weed control at 4483.4 g/ha (Monocots [3]) [%] | pest or weed control at 2241.7 g/ha (Dicots [4]) [%] | pest or weed control at 4483.4 g/ha (Dicots [4]) [%] |
| --- | --- | --- | --- | --- | --- | --- | --- | --- |
| C#CCOc1cc(Oc2ccc(C(F)(F)F)cc2Cl)ccc1[N+](=O)[O-] [Example 13] | 78 | 76 | 72 | 90 | 100 | 77 | 100 | 98 |
| CC#CCCOc1cc(Oc2ccc(C(F)(F)F)cc2Cl)ccc1[N+](=O)[O-] [Example 14] | 30 | 64 | 22 | 78 | 91 | 61 | 100 | 94 |
| O=[N+]([O-])c1ccc(Oc2ccc(C(F)(F)F)cc2Cl)cc1OCCO [Example 15, 2-chloro-α,α,α-trifluoro-p-tolyl-3-(2-hydroxyethoxy)-4-nitrophenyl ether] | 68 | 99 | 90 | 100 | 76 | 79 | 94 | 99 |
| CCOCCOc1cc(Oc2ccc(C(F)(F)F)cc2Cl)ccc1[N+](=O)[O-] [Example 16] | 67 | 86 | 75 | 94 | 82 | 77 | 94 | 96 |
| CN(C)CCOc1cc(Oc2ccc(C(F)(F)F)cc2Cl)ccc1[N+](=O)[O-] [Example 17, 2-chloro-α,α,α-trifluoro-p-tolyl-3-(2-dimethylaminoethoxy)-4-nitrophenyl ether] | 20 | 51 | 31 | 84 | 39 | 45 | 98 | 89 |
| O=[N+]([O-])c1ccc(Oc2ccc(C(F)(F)F)cc2Cl)cc1NCCO [Example 22] | 63 | 72 | 77 | 98 | 70 | 60 | 100 | 99 |
| O=C(O)COc1cc(Oc2ccc(C(F)(F)F)cc2Cl)ccc1[N+](=O)[O-] [Example 23] | 55 | 90 | 87 | 64 | 71 | 82 | 100 | 100 |
| CCOC(=O)COc1cc(Oc2ccc(C(F)(F)F)cc2Cl)ccc1[N+](=O)[O-] [Example 24] | 62 | 91 | 97 | 68 | 84 | 86 | 100 | 99 |
| CC(Oc1cc(Oc2ccc(C(F)(F)F)cc2Cl)ccc1[N+](=O)[O-])C(=O)O (stereo not drawn) [Example 25, 2-Chloro-α,α,α-trifluoro-p-tolyl-3-(1-carboxyethoxy)-4-nitrophenyl ether] | 40 | 87 | 93 | 88 | 88 | 97 | 100 | 100 |
| Nc1cc(Oc2ccc(C(F)(F)F)cc2Cl)ccc1[N+](=O)[O-] [Example 27] | 74 | 76 | 90 | 98 | 99 | 82 | 100 | 100 |

— USRE31731E, “Herbicidal 4-trifluoromethyl-4-nitrodiphenyl ethers” (priority 1978, dated 1984)
